Measured values as given in patent US20210405025A1, “IDENTIFYING COMPOUNDS FOR TREATING CANCER AND USE THEREOF” (THE UAB RESEARCH FOUNDATION, priority 2018, published 2021).
Counter-ions that a name gives are not always drawn.

Test system: relapsed AML cells
Assay: Drug sensitivity assay, 1,536-well, 3-day culture with individual approved drugs at 10 μM, viability by alamarBlue
Assay type: cell-based, human
Conditions: not given
Protocol: Drug sensitivity assays were performed using a 1,536-well platform where all cells and reagents were deposited in wells using an acoustic liquid handling unit that is highly accurate for dispensing of nanoliter volumes of liquid. […] After dispensing the cells into the wells, an independent drug at a known concentration is added to each well and incubated with the cells. After three days, the percentage of live cells in each well is determined to assess the killing efficiency of each compound. […] Cell viability assays are known to those of skill in the art. See, for example, Pemovska et al., Individualized systems medicine strategy to tailor treatments for patients with chemorefractory acute myeloid leukemia. Cancer Discovery 3:1416-1429, 2013; Pabst et al., Identification of small molecules that support human leukemia stem cell activity ex vivo. Nature Methods 11:436-442, 2014; Baccelli et al., A novel approach for the identification of efficient combination therapies in primary human acute myeloid leukemia specimens. Blood Cancer Journal 7:e529, 2017. In studies described herein, the 1,536-well format was utilized, which allowed for use of four times fewer cells as well as less drug and media components due to the small assay volume of 5 microliters. […] Other compounds like CellTiter-Glo (Promega, Madison, Wis.) are equally appropriate reagents for determining cell viability.
Conditions for the drug screening assays were as described in Pabst et al., Identification of small molecules that support human leukemia stem cell activity ex vivo, Nature Methods 11:436-442, 2014). Using this protocol, cells were cultured in Iscove's Modified Dulbecco's Medium (IMDM), 15% BIT (bovine serum albumin, insulin, transferrin; Stem Cell Technologies 09500 (Vancouver, Calif.)), 100 ng/ml SCF (Shenandoah 100-04 (Warwick, Pa.)), 50 ng/ml FLT3L (Shenandoah 100-21), 20 ng/ml IL-3 (Shenandoah 100-80), 20 ng/ml G-CSF (Shenandoah 100-72), 10^-4 M β-mercaptoethanol, gentamicin (50 μg/ml) and ciprofloxacin (10 μg/ml).
Cells were removed from liquid nitrogen and placed in a 37° C. bath, just until thawed. For 1,536-well screens utilizing 6,000 wells about 100 million cells were thawed. The volume was doubled with pre-warmed culture media and placed on ice for about one to two minutes. The cells were brought to a final volume of about 8 to 10 mL before spinning down at 1,100 rpm for 5 min at 10° C. The pelleted cells were resuspended in 10 mL of culture media and plated in a tissue-culture treated T75 flask at a density of 1 to 2 million cells/ml. The cells were cultured overnight prior to fluorescence-activated cell sorting of viable cells on the following day.
After cells were cultured overnight, a cell scraper was used to remove any cells that adhered to the plastic. The cells were gently pipetted up and down to break up aggregates. Then, the entire volume was transferred to a 50 mL conical tube through a 70 micron cell strainer to remove cell clumps. The T75 flask was rinsed and scraped with about 10 mL HBSS and transferred to the same 50 mL conical tube through the strainer. The harvested cells were spun down at 1,100 rpm for 5 min at 10° C. The cells were then resuspendd in about 300-500 microliters FACS buffer (HBSS+2% FBS+1× propidium iodide) and transferred to a FACS tube. The tube was placed on ice and viable cells that are forward- and side-scatter gated on viable myeloid blasts were sorted by FACS (the scatter gate should exclude small lymphocytes, large myeloid cells, and debris). After sorting the required number of viable cells, the cells were spun down at 1,100 rpm for 5 min at 10° C. and subsequently resuspended at 4,000-4,500 cells per 5 microliter volume of complete culture media with growth factors and penicillin/streptomycin.

`CCCCCCCCCCCCCCCC[n+]1ccccc1` was tested, and the “#Cases >70% cell death” value was 18.

Same assay, conditions: number of relapsed AML cases out of 18 tested with >70% cell death; 10 μM, 3-day culture

Compared with `COc1cc([C@@H]2c3cc4c(cc3[C@H](O)[C@H]3COC(=O)[C@H]23)OCO4)cc(OC)c1OC` [PODOFILOX], `CN(C)c1ccc2nc3ccc(=[N+](C)C)cc-3sc2c1` [METHYLENE BLUE] is higher in “#Cases >70% cell death” value: 13 for the first, 18 for the second.

Going from `Nc1nc(Cl)nc2c1ncn2[C@@H]1O[C@H](CO)[C@@H](O)[C@@H]1F` [CLOFARABINE] to TYLOXAPOL, the “#Cases >70% cell death” value falls from 18 to 8.

NALTRIBEN METHAN[…] and `C#C[C@]1(O)CC[C@H]2[C@@H]3[C@H](C)CC4=C(CCC(=O)C4)[C@H]3CC[C@@]21C` [TIBOLONE] are the same in “#Cases >70% cell death” value: 1 for the first, 1 for the second.

Compared with `CC(=O)CC(c1ccc([N+](=O)[O-])cc1)c1c(O)c2ccccc2oc1=O` (stereo not drawn) [ACENOCOUMAROL], `Nc1nc2nn[nH]c2c(=O)[nH]1` [8-AZAGUANINE] is lower in “#Cases >70% cell death” value: 4 for the first, 1 for the second.

Going from `Cc1c(-c2ccc(O)cc2)n(Cc2ccc(OCCN3CCCCCC3)cc2)c2ccc(O)cc12` [BAZEDOXIFENE HCL] to `CCCCOc1ccc(OCCCN2CCOCC2)cc1` [PRAMOXINE], the “#Cases >70% cell death” value falls from 8 to 1.

Going from `S=c1nc[nH]c2nc[nH]c12` [MERCAPTOPURINE] to `Cn1cc(-c2[nH]c3cc(NC(=O)[C@H](N)C4CCCCC4)cc4c3c2C=NNC4=O)cn1` [PF-00477736], the “#Cases >70% cell death” value rises from 10 to 13.

Going from `[H]/N=C(\N/C(=N/[H])NCCCCCCNC(=N)NC(=N)Nc1ccc(Cl)cc1)Nc1ccc(Cl)cc1` [CHLORHEXIDINE DIHYDROCHLORIDE] to `CC[C@]1(O)C[C@H]2CN(CCc3c([nH]c4ccccc34)[C@@](C(=O)OC)(c3cc4c(cc3OC)N(C=O)[C@H]3[C@@](O)(C(=O)OC)[C@H](OC(C)=O)[C@]5(CC)C=CCN6CC[C@]43[C@@H]65)C2)C1` [VINCRISTINE], the “#Cases >70% cell death” value rises from 11 to 14.

Compared with `CNC(=O)c1ccccc1Sc1ccc2c(/C=C/c3ccccn3)n[nH]c2c1` [AXITINIB], `Cc1cccc(C)c1N=C1NCCCS1` [XYLAZINE] is lower in “#Cases >70% cell death” value: 9 for the first, 4 for the second.

First: CC(=O)O[C@H]1C(=O)[C@@]2(C)[C@H]([C@H](OC(=O)c3ccccc3)[C@]3(O)C[C@H](OC(=O)[C@H](O)[C@@H](NC(=O)c4ccccc4)c4ccccc4)C(C)=C1C3(C)C)[C@]1(OC(C)=O)CO[C@@H]1C[C@@H]2O [PACLITAXEL]
Second: Oc1c(Cl)cc(Cl)c2cccnc12 [CHLOROXINE]
The “#Cases >70% cell death” value of the first is higher: 5 for the first, 1 for the second.

Compared with `COc1cccc2c1C(=O)c1c(O)c3c(c(O)c1C2=O)C[C@@](O)(C(C)=O)C[C@@H]3O[C@H]1C[C@H](N)[C@H](O)[C@H](C)O1` [DAUNORUBICIN], `CC(C)N1CCN(c2ccc(OCC3COC(Cn4cncn4)(c4ccc(Cl)cc4Cl)O3)cc2)CC1` (stereo not drawn) [TERCONAZOLE] is lower in “#Cases >70% cell death” value: 18 for the first, 7 for the second.

First: N#CN=C(NCCCCCCOc1ccc(Cl)cc1)Nc1ccncc1 [GMX1778]
Second: CCCCC(CC)COC(=O)C(C#N)=C(c1ccccc1)c1ccccc1 (stereo not drawn) [OCTOCRYLENE]
The “#Cases >70% cell death” value of the first is higher: 16 for the first, 1 for the second.

Going from `CCC(=O)O[C@]1(C(=O)CCl)[C@@H](C)C[C@H]2[C@@H]3C[C@H](F)C4=CC(=O)C=C[C@]4(C)[C@@]3(F)[C@@H](O)C[C@@]21C` [HALOBETASOL PROPIONATE] to `CC(C)(C)c1[nH]cnc1/C=c1\[nH]c(=O)/c(=C/c2ccccc2)[nH]c1=O` [PLINABULIN], the “#Cases >70% cell death” value rises from 3 to 12.

Going from `N[C@@H](Cc1ccc(N(CCCl)CCCl)cc1)C(=O)O` to `COc1ccc(S(=O)(=O)N(C(C)=O)c2ccccc2/C=C/c2cc[n+]([O-])cc2)cc1` [HMN-214], the “#Cases >70% cell death” value rises from 4 to 5.

First: COc1ccc(C2CNC(=O)C2)cc1OC1CCCC1 (stereo not drawn) [ROLIPRAM]
Second: CC[C@H](CC#N)OC(=O)N[C@@H](C)c1cccc(NC(=O)Nc2ccc(-c3cnco3)c(OC)c2)c1 [AVN944]
The “#Cases >70% cell death” value of the first is lower: 1 for the first, 10 for the second.

With `CN(C)C(=O)n1cc(C(=O)c2ccn3c2CS[C@@H]3c2cccnc2)c2ccc(-c3ccc(F)cc3)cc21` [A-85783] the “#Cases >70% cell death” value was 9.
